According to patent US8618154B2, “LXR modulators” (Bristol-Myers Squibb Company, priority 2009, dated 2013):

Test system: ABCA1 gene expression
Experiment: Human whole blood assay (hWBA), ABCA1 mRNA induction
Type: cell-based
Details: Homo sapiens; full LXRα and LXRβ pan agonist used as reference; read-out: EC50 of reference compound
Description: Human whole blood was collected in EDTA containing tubes and 0.5 mL aliquots were immediately mixed in a 96 well block with the appropriate serial dilution of test compound, in 0.5% DMSO. Compounds were incubated with blood at 37° C. with constant rocking for 4 hours. After incubation, cells were lysed in ABI Nucleic Acid Purification Lysis Solution (Applied Biosystems catalog #4305895) and frozen at −80° C. Following cell lysis, total RNA was purified using an ABI 6100 RNA prep station according to the protocol provided by the manufacturer. cDNAs were synthesized, and mRNAs were quantitated using SYBR-Green Quantitative PCR (Q-PCR) on an ABI Prism 7900HT Sequence Detection System and reagents from Quanta Bioscience Inc (Quanta Bioscience catalog #95047 and 95055).
The quantity of each mRNA was determined by the ΔΔCT method (Michael W. Pfaffl. A new mathematical model for relative quantification in real-time RT-PCR. Nucleic Acids Research, 2001, Vol. 29, No. 9 e45) and normalized to the quantity of two control mRNAs, i.e. ribosomal protein L-30 (L-30) and beta-2-microglobulin (B2M). The induction of ABCA1 and ABCG1 by test compound was graphed as a percent of the reference compound, 2-(4-(5-(5-cyano-1-(2,4-difluorobenzyl)-6-oxo-4-(trifluoromethyl)-1,6-dihydropyridin-2-yl)thiophen-2-yl)-3-methylphenyl)acetic acid, and potency (EC50) and activity (% MAX) were calculated by fitting a sigmoidal response curve as a function of log transformed compound concentration using XLFit software according to the equation y=A+((B−A)/(1+((C/x)^D))).

EC50: 1000 to 2000 nM
Structure (SMILES): Cc1cc(CC(=O)O)ccc1-c1ccc(-c2cc(C(F)(F)F)c(C#N)c(=O)n2Cc2ccc(F)cc2F)s1 [2-(4-(5-(5-cyano-1-(2,4-difluorobenzyl)-6-oxo-4-(trifluoromethyl)-1,6-dihydropyridin-2-yl)thiophen-2-yl)-3-methylphenyl)acetic acid, reference compound]
